The values that follow are results of earlier work, collected in patent US9145400B2, “Process for the preparation of form III of vilazodone hydrochloride” (Sandoz AG, priority 2013, dated 2015).

The conditions of data set [1]: at room temperature.
For data set [2] the following is noted: DVS, humidity of about 90%; takes up water only in minimal amounts; per WO 02/102794.

Where two headings read alike, the source gives them in different places.

For `Cl.N#Cc1ccc2[nH]cc(CCCCN3CCN(c4ccc5oc(C(N)=O)cc5c4)CC3)c2c1` [form III of Vilazodone hydrochloride, 5-(4-[4-(5-cyano-1H-indol-3-yl)butyl]piperazin-1-yl)benzofuran-2-carboxamide hydrochloride], the “thermodynamic stability among polymorphs” value is recorded as “thermodynamically most stable form” in data set [1] (per WO 02/102794 page 20, lines 23-26 and FIG. 27, listed as Vilazodone hydrochloride crystalline form III); “most thermodynamically stable polymorph” in data set [1] (per WO 02/102794 page 20, lines 23-26 and FIG. 27, hydrochloride). Besides, the “hygroscopicity (water uptake)” value in data set [2] is given as “non-hygroscopic”.
